{
  "source": "the SangsterLogP compilation",
  "data": [
    {"values": [
      {"smiles": "COc1ccc2c(C)cc(=O)oc2c1", "logP": 3.16},
      {"smiles": "C/C=C(/C)C(=O)O[C@H]1[C@@H](O)c2c(ccc3ccc(=O)oc23)OC1(C)C", "logP": 3.56},
      {"smiles": "C/C=C(\\C)C(=O)OC1c2c(ccc3ccc(=O)oc23)OC(C)(C)[C@@H]1OC(=O)/C(C)=C/C", "note": "(stereo not given in full)", "logP": 4.41},
      {"smiles": "COc1c2ccoc2c(OCC=C(C)C)c2oc(=O)ccc12", "logP": 3.86},
      {"smiles": "C/C=C(/C)C(=O)O[C@@H]1[C@H](OC(C)=O)c2c(ccc3ccc(=O)oc23)OC1(C)C", "logP": 3.75},
      {"smiles": "C/C=C(/C)C(=O)O[C@H]1C[C@@](C)(O)C(=O)[C@@H](OC(=O)/C(C)=C\\C)[C@@]2(C)CC[C@@](O)(C(C)C)[C@@H]12", "logP": 3.29},
      {"smiles": "COc1cc2ccc(=O)oc2cc1OC", "logP": 2.45},
      {"smiles": "CC(C)=CCOc1ccc2ccc(=O)oc2c1", "logP": 3.91},
      {"smiles": "COc1ccc2ccc(=O)oc2c1CC1OC1(C)C", "note": "(stereo not given)", "logP": 3.03},
      {"smiles": "O=c1cc(O)c2ccccc2o1", "logP": 1.42}
    ]}
  ]
}
